Data taken from PMC6071731 (2018).

What was measured:
[1] = system: 22AG (DNA, G4) AGGGTTAGGGTTAGGGTTAGGG; assay: photometric titration; settings: 95 mM K+; potassium phosphate buffer, 5% DMSO, pH 7.0; ligand 20 μM; DNA concentration in oligonucleotide
[2] = system: 22AG (DNA, G4) AGGGTTAGGGTTAGGGTTAGGG; assay: fluorimetric titration; settings: 95 mM K+; potassium phosphate buffer, 5% DMSO, pH 7.0; ligand 20 μM; DNA concentration in oligonucleotide

Compound	Kb [1]	Kb [2]
CN(C)c1ccc(C#Cc2ccc3c[n+]4ccccc4cc3c2)cc1	16000 M⁻¹	–
C(#Cc1ccc2c[n+]3ccccc3cc2c1)c1ccccc1	–	220000 M⁻¹
COc1ccc(C#Cc2ccc3c[n+]4ccccc4cc3c2)cc1	26000 M⁻¹	–
C(#Cc1cc2ccccc2c2ccccc12)c1ccc2c[n+]3ccccc3cc2c1	–	30000 M⁻¹
